Test results taken from patent US9662327B2 (AGIOS PHARMACEUTICALS, INC, priority 2011, dated 2017).
Like-named read-outs stand apart in the source and are kept apart here.

Molecular target: IDH1 R132H (Homo sapiens (Human), UniProt O75874, R132H)
Assay: Assays for IDH1 R132H Inhibitors (NADPH/aKG, resazurin detection)
Type: biochemical
Conditions: IDH1 R132H enzyme
Experimental: Assays were conducted in a volume of […] assay buffer (150 mM NaCl, 10 mM MgCl2, 20 mM Tris pH 7.5, 0.03% bovine serum albumin) as follows in a standard 384-well plate: To 25 ul of substrate mix (8 uM NADPH, 2 mM aKG), 1 μl of test compound was added in DMSO. […] The reaction was incubated for 50 minutes at room temperature, then 25 μl of detection mix (30 μM resazurin, […]) was added and the mixture further incubated for 5 minutes at room temperature.

[1] = Table 2, read-out: IDHR132H Activity

IDH1 R132H, sequence (O75874 whole entry R132H): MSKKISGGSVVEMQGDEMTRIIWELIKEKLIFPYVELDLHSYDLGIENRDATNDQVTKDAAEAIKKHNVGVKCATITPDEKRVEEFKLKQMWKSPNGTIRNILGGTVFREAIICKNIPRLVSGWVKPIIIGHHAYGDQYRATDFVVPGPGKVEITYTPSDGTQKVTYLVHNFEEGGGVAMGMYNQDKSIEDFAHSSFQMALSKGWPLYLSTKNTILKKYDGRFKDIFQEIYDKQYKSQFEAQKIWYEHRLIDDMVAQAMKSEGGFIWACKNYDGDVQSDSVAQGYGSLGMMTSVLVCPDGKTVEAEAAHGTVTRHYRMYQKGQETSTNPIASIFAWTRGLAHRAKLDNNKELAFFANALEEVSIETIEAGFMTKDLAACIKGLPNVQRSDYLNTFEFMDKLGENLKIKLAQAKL

Structure (SMILES)	IC50 [1] [nM]	IC50 (Table 3, read-out: R132H IC50) [nM]
CC1(C)Cc2c(C#N)c(N3CCN(C(=O)CC4COC4)[C@H](C4CC4)C3)nc(C3CC3)c2CO1 [Compound 466, (R)-8-cyclopropyl-6-(3-cyclopropyl-4-(2-(oxetan-3-yl)acetyl)piperazin-1-yl)-3,3-dimethyl-3,4-dihydro-1H-pyrano[3,4-c]pyridine-5-carbonitrile]		500 to 1000
C[C@@H]1CN(c2nc(C3CCCCC3)c3c(c2C#N)CCOC3)CCN1C(=O)c1cscn1 [Compound 239, (R)-8-cyclohexyl-6-(3-methyl-4-(thiazole-4-carbonyl)piperazin-1-yl)-3,4-dihydro-1H-pyrano[3,4-c]pyridine-5-carbonitrile]	1000 to 10000	
CCOC(=O)[C@@H]1CN(c2nc(C3CC3)c3c(c2C#N)CC(C)(C)OC3)CCN1C(C)=O [Compound 468, (S)-ethyl 1-acetyl-4-(5-cyano-8-cyclopropyl-3,3-dimethyl-3,4-dihydro-1H-pyrano[3,4-c]pyridin-6-yl)piperazine-2-carboxylate]		500 to 1000
CC(C)[C@@H]1CN(c2nc(C3CC3)c3c(c2C#N)CC(C)(C)OC3)CCN1C(=O)COCC1CC1 [Compound 390]	500 to 1000	
COCCC(=O)N1CCN(c2nc(C3CC3)c3c(c2C#N)CC(C)(C)OC3)C[C@@H]1CC(C)C [Compound 389]	1000 to 10000	
COc1cccc(CC(=O)N2CCN(c3nc(C4CCCCC4)c4c(c3C#N)CCOC4)C[C@H]2C)c1 [Compound 189, (R)-8-cyclohexyl-6-(4-(2-(3-methoxyphenyl)acetyl)-3-methylpiperazin-1-yl)-3,4-dihydro-1H-pyrano[3,4-c]pyridine-5-carbonitrile]	1000 to 10000	
COCCC(=O)N1CCN(c2nc(C3CCCCC3)c3c(c2C#N)CCOC3)C[C@H]1C [Compound 240, (R)-8-cyclohexyl-6-(4-(3-methoxypropanoyl)-3-methylpiperazin-1-yl)-3,4-dihydro-1H-pyrano[3,4-c]pyridine-5-carbonitrile]	1000 to 10000	
C[C@@H]1CN(c2nc(C3CCCCC3)c3c(c2C#N)CCOC3)CCN1C(=O)Nc1ccc(F)cc1 [Compound 281, (R)-4-(5-cyano-8-cyclohexyl-3,4-dihydro-1H-pyrano[3,4-c]pyridin-6-yl)-N-(4-fluorophenyl)-2-methylpiperazine-1-carboxamide]	1000 to 10000	
CCOC(=O)C1CN(c2nc(C3CCCCC3)c3c(c2C#N)CCOC3)CCN1C(=O)CCOC (centres unmarked) [Compound 278, ethyl 4-(5-cyano-8-cyclohexyl-3,4-dihydro-1H-pyrano[3,4-c]pyridin-6-yl)-1-(3-methoxypropanoyl) piperazine-2-carboxylate]	1000 to 10000	
COC(=O)C(C)CCC(=O)N1CCN(c2nc(C3CC3)c3c(c2C#N)CC(C)(C)OC3)C[C@H]1C(C)C (stereo partly drawn) [Compound 439, Methyl 5-((R)-4-(5-cyano-8-cyclopropyl-3,3-dimethyl-3,4-dihydro-1H-pyrano[3,4-c]pyridin-6-yl)-2-isopropylpiperazin-1-yl)-2-methyl-5-oxopentanoate]		500 to 1000
CSCCC(=O)N1CCN(c2nc(C3CC3)c3c(c2C#N)CC(C)(C)OC3)CC1(C)C [Compound 320, 8-cyclopropyl-6-(3,3-dimethyl-4-(3-(methylthio)propanoyl)piperazin-1-yl)-3,3-dimethyl-3,4-dihydro-1H-pyrano[3,4-c]pyridine-5-carbonitrile]	1000 to 10000	
C[C@@H]1CN(c2nc(C3CCCCC3)c3c(c2C#N)CCOC3)CCN1C(=O)c1cccs1 [Compound 241, (R)-8-cyclohexyl-6-(3-methyl-4-(thiophene-2-carbonyl)piperazin-1-yl)-3,4-dihydro-1H-pyrano[3,4-c]pyridine-5-carbonitrile]	1000 to 10000	
CCCOC(=O)N1CCN(c2nc(C3CCCCC3)c3c(c2C#N)CCOC3)C[C@H]1C [Compound 359, (R)-propyl 4-(5-cyano-8-cyclohexyl-3,4-dihydro-1H-pyrano[3,4-c]pyridin-6-yl)-2-methylpiperazine-1-carboxylate]	1000 to 10000	
COc1ccc(NC(=O)N2CCN(c3nc(C4CCCCC4)c4c(c3C#N)CCOC4)C[C@H]2C)cc1 [Compound 299, (R)-4-(5-cyano-8-cyclohexyl-3,4-dihydro-1H-pyrano[3,4-c]pyridin-6-yl)-N-(4-methoxyphenyl)-2-methylpiperazine-1-carboxamide]	1000 to 10000	
C[C@@H]1CN(c2nc(C3CCCCC3)c3c(c2C#N)CCOC3)CCN1C(=O)c1ccoc1 [Compound 160, (R)-8-cyclohexyl-6-(4-(furan-3-carbonyl)-3-methylpiperazin-1-yl)-3,4-dihydro-1H-pyrano[3,4-c]pyridine-5-carbonitrile]	1000 to 10000	
CC(C)c1nc(N2CCN(S(=O)(=O)c3cccs3)CC2)c(C#N)c2c1COCC2 [Compound 101]	1000 to 10000	

Now from value to compound:

IC50 [1] [nM]	IC50 (Table 3, read-out: R132H IC50) [nM]	Structure (SMILES)
1000 to 10000		CC1CN(c2nc(C3CCCC3)c3c(c2C#N)CC(C)(C)OC3)CCN1C(=O)c1ccco1 (centres unmarked) [Compound 147, 8-cyclopentyl-6-(4-(furan-2-carbonyl)-3-methylpiperazin-1-yl)-3,3-dimethyl-3,4-dihydro-1H-pyrano[3,4-c]pyridine-5-carbonitrile]
500 to 1000		CC1(C)Cc2c(C#N)c(N3CCN(C(=O)c4ccco4)[C@H](c4ccccc4)C3)nc(C3CC3)c2CO1 [Compound 272]
500 to 1000		CC[C@@H]1CN(c2nc(C3CC3)c3c(c2C#N)CC(C)(C)OC3)CCN1C(=O)Cc1cccnc1 [Compound 294]
< 500		CNC(=O)N1CCN(c2nc(C3CC3)c3c(c2C#N)CC(C)(C)OC3)C[C@H]1C(C)C [Compound 344]
1000 to 10000		CCOC(=O)C1CN(c2nc(C(C)C)c3c(c2C#N)CC(C)(C)OC3)CCN1C(=O)OCCOC (centres unmarked) [Compound 329, 2-ethyl 1-(2-methoxyethyl) 4-(5-cyano-8-isopropyl-3,3-dimethyl-3,4-dihydro-1H-pyrano[3,4-c]pyridin-6-yl)piperazine-1,2-dicarboxylate]
1000 to 10000		CC(C)c1nc(N2CCN(C(=O)c3cccnc3)[C@H](C)C2)c(C#N)c2c1COC(C)(C)C2 [Compound 249, (R)-8-isopropyl-3,3-dimethyl-6-(3-methyl-4-nicotinoylpiperazin-1-yl)-3,4-dihydro-1H-pyrano[3,4-c]pyridine-5-carbonitrile]
1000 to 10000		CC(C)[C@@H]1CN(c2nc(C3CC3)c3c(c2C#N)CC(C)(C)OC3)CCN1C(=O)NCCc1ccccc1 [Compound 286]
1000 to 10000		CC(C)c1nc(N2CCN(C(=O)c3c[nH]c4ccccc34)CC2)c(C#N)c2c1COCC2 [Compound 104, 6-(4-(1H-indole-3-carbonyl)piperazin-1-yl)-8-isopropyl-3,4-dihydro-1H-pyrano[3,4-c]pyridine-5-carbonitrile]
1000 to 10000		CC(C)c1nc(N2CCN(C(=O)c3ccoc3)[C@@H](c3ccccc3)C2)c(C#N)c2c1COC(C)(C)C2 [Compound 257, (S)-6-(4-(furan-3-carbonyl)-3-phenylpiperazin-1-yl)-8-isopropyl-3,3-dimethyl-3,4-dihydro-1H-pyrano[3,4-c]pyridine-5-carbonitrile]
1000 to 10000		Cc1occc1C(=O)N1CCN(c2nc(C(C)C)c3c(c2C#N)CC(C)(C)OC3)C(c2ccccc2)C1 (centres unmarked) [Compound 179, 8-isopropyl-3,3-dimethyl-6-(4-(2-methylfuran-3-carbonyl)-2-phenylpiperazin-1-yl)-3,4-dihydro-1H-pyrano[3,4-c]pyridine-5-carbonitrile]
< 500		CCc1nc(N2CCN(C(=O)CCOC)[C@H](C(C)C)C2)c(C#N)c2c1COC(C)(C)C2 [Compound 413, (R)-8-ethyl-6-(3-isopropyl-4-(3-methoxypropanoyl)piperazin-1-yl)-3,3-dimethyl-3,4-dihydro-1H-pyrano[3,4-c]pyridine-5-carbonitrile]
1000 to 10000		CCOC(=O)C1CN(c2nc(C(C)C)c3c(c2C#N)CC(C)(C)OC3)CCN1C(=O)c1ccco1 (centres unmarked) [Compound 298, ethyl 4-(5-cyano-8-isopropyl-3,3-dimethyl-3,4-dihydro-1H-pyrano[3,4-c]pyridin-6-yl)-1-(furan-2-carbonyl)piperazine-2-carboxylate]
< 500		COC(=O)CC(=O)N1CCN(c2nc(C3CC3)c3c(c2C#N)CC(C)(C)OC3)C[C@H]1C(C)C [Compound 409, (R)-methyl 3-(4-(5-cyano-8-cyclopropyl-3,3-dimethyl-3,4-dihydro-1H-pyrano[3,4-c]pyridin-6-yl)-2-isopropylpiperazin-1-yl)-3-oxopropanoate]
< 500		Cc1occc1C(=O)N1CCN(c2nc(C3CC3)c3c(c2C#N)CC(C)(C)OC3)C[C@H]1C(C)C [Compound 181]
1000 to 10000		Cc1ccc(-c2nc(N3CC(C)N(C(=O)c4ccco4)C(C)C3)c(C#N)c3c2COCC3)cc1 (centres unmarked) [Compound 112]
1000 to 10000		CC(C)[C@@H]1CN(c2nc(C3CC3)c3c(c2C#N)CC(C)(C)OC3)CCN1C(=O)Cn1cncn1 [Compound 324, (R)-6-(4-(2-(1H-1,2,4-triazol-1-yl)acetyl)-3-isopropylpiperazin-1-yl)-8-cyclopropyl-3,3-dimethyl-3,4-dihydro-1H-pyrano[3,4-c]pyridine-5-carbonitrile]
500 to 1000		CC(C)c1nc(N2CCN(C(=O)Cc3cccnc3)[C@H](C(C)C)C2)c(C#N)c2c1COC(C)(C)C2 [Compound 250, (R)-8-isopropyl-6-(3-isopropyl-4-(2-(pyridin-3-yl)acetyl)piperazin-1-yl)-3,3-dimethyl-3,4-dihydro-1H-pyrano[3,4-c]pyridine-5-carbonitrile]
< 500		CC[C@@H]1CN(c2nc(C3CC3)c3c(c2C#N)CC(C)(C)OC3)CCN1C(=O)Cc1cccs1 [Compound 236]
1000 to 10000		CC(C)c1nc(N2CCN(C(=O)c3ccsc3)[C@H](C)C2)c(C#N)c2c1COC(C)(C)C2 [Compound 251, (R)-8-isopropyl-3,3-dimethyl-6-(3-methyl-4-(thiophene-3-carbonyl)piperazin-1-yl)-3,4-dihydro-1H-pyrano[3,4-c]pyridine-5-carbonitrile]
